Reference: ChEMBL document CHEMBL5154808, “Novel β-Hairpin Antimicrobial Peptides Containing the β-Turn Sequence of -RRRF- Having High Cell Selectivity and Low Incidence of Drug Resistance” (J Med Chem, 2022)
≈ marks a conversion by molar mass, not a printed value. Calls of active or inactive are those of the source. The calls are words filed in the database; no cut-off is given here. Where a SMILES comes first, the peptide text is derived from it.

Experiments:
Staphylococcus aureus [1] = test: Antimicrobial activity against Staphylococcus aureus ATCC 25923 assessed as reduction of bacterial growth incubated for 18 hrs by CLSI protocol based broth microdilution method; type: functional
[2] = system: Staphylococcus epidermidis; test: Antimicrobial activity against Staphylococcus epidermidis ATCC 12228 assessed as reduction of bacterial growth incubated for 18 hrs by CLSI protocol based broth microdilution method; type: functional
Pseudomonas aeruginosa = test: Antimicrobial activity against Pseudomonas aeruginosa ATCC 27853 assessed as reduction of bacterial growth incubated for 18 hrs by CLSI protocol based broth microdilution method; type: functional
Enterococcus faecalis = test: Antimicrobial activity against Enterococcus faecalis ATCC 29212 assessed as reduction of bacterial growth incubated for 18 hrs by CLSI protocol based broth microdilution method; type: functional
Escherichia coli [3] = test: Antimicrobial activity against Escherichia coli ATCC 25922 assessed as reduction of bacterial growth incubated for 18 hrs by CLSI protocol based broth microdilution method; type: functional
[4] = Cytotoxicity against human HK-2 cells assessed as reduction in cell viability incubated for 1 hr by resazurin based microplate reader method; type: toxicity
Klebsiella pneumoniae = test: Antimicrobial activity against Klebsiella pneumoniae ATCC 700603 assessed as reduction of bacterial growth incubated for 18 hrs by CLSI protocol based broth microdilution method; type: functional
Erythrocyte = test: Hemolytic activity in mouse red blood cells assessed as release of hemoglobin incubated for 1 hr by microplate reader method; type: toxicity, cell-based
Bacillus subtilis = test: Antimicrobial activity against Bacillus subtilis ATCC 23857 assessed as reduction of bacterial growth incubated for 18 hrs by CLSI protocol based broth microdilution method; type: functional
Escherichia coli [5] = test: Induction of drug resistance in Escherichia coli ATCC 25922 assessed as increase in MIC measured after 20 passages by CLSI protocol based broth microdilution method; type: functional; details: time 18.0 hrs
Staphylococcus aureus [6] = test: Antimicrobial activity against kanamycin-resistant Staphylococcus aureus ATCC 25923; type: functional
Staphylococcus aureus [7] = test: Induction of drug resistance in Staphylococcus aureus ATCC 25923 assessed as fold increase in MIC after 5 passages by CLSI protocol based broth microdilution method; type: functional; details: time 18.0 hrs
Escherichia coli [8] = test: Antimicrobial activity against kanamycin-resistant Escherichia coli ATCC 25922; type: functional
Staphylococcus aureus [9] = test: Induction of drug resistance in Staphylococcus aureus ATCC 25923 assessed as increase in MIC after 10 passages by CLSI protocol based broth microdilution method; type: functional

MIC (Staphylococcus aureus [1]) [µM]	MIC [2] [µM]	MIC (Pseudomonas aeruginosa) [µM]	MIC (Enterococcus faecalis) [µM]	MIC (Escherichia coli [3]) [µM]	MIC (Klebsiella pneumoniae) [µM]	MIC (Bacillus subtilis) [µM]	Molecule	CC50 at 1 h [4] [µM]	HC10 (Erythrocyte) [µM]	Activity (Escherichia coli [5])	MIC (Staphylococcus aureus [6]) [µM]	fold change (FC) (Staphylococcus aureus [7])	MIC (Escherichia coli [8]) [µM]	Activity (Staphylococcus aureus [9])
8 (≈ 15.3 µg/mL)	4 (≈ 7.67 µg/mL)	4 (≈ 7.67 µg/mL)	16 (≈ 30.7 µg/mL)	8 (≈ 15.3 µg/mL)	8 (≈ 15.3 µg/mL)	4 (≈ 7.67 µg/mL)	CC[C@H](C)[C@H](N)C(=O)N[C@@H](CCCNC(=N)N)C(=O)N[C@H](C(=O)N[C@@H](CCCNC(=N)N)C(=O)N[C@@H](CS)C(=O)N[C@@H](CCCNC(=N)N)C(=O)N[C@@H](CCCNC(=N)N)C(=O)N[C@@H](CCCNC(=N)N)C(=O)N[C@@H](Cc1ccccc1)C(=O)N[C@@H](CS)C(=O)N[C@@H](CCCNC(=N)N)C(=O)N[C@H](C(=O)N[C@@H](CCCNC(=N)N)C(=O)N[C@H](C(N)=O)[C@@H](C)CC)[C@@H](C)CC)[C@@H](C)CC (H-IRIRCRRRFCRIRI-NH2)	37.1	> 256	–	–	–	–	–
128	128	> 128	> 128	> 128	> 128	64	H-ARARRRRFRARA-NH2	> 128	> 256	–	–	–	–	–
8	2	8	8	8	8	4	H-FRFRFRRRRFRFRFRF-NH2	10.3	> 256	–	–	–	–	–
32	8	16	64	64	64	4	H-IKIKRRRFKIKI-NH2	> 128	> 256	–	–	–	–	–
8	2	4	4	8	8	2	H-IRIRIRRRRFRIRIRI-NH2	12.3	56	–	–	–	–	–
4	4	4	16	16	16	4	H-IRIRRRRFRIRI-NH2	128	> 256	–	–	–	–	–
32	8	64	128	32	128	4	H-LKLKRRRFKLKL-NH2	> 128	> 256	–	–	–	–	–
8	4	16	32	8	64	4	H-RIRIRRRFIRIR-NH2	> 128	> 256	–	–	–	–	–
16	8	64	> 128	32	64	4	H-VRVRRRRFRVRV-NH2	> 128	> 256	–	–	–	–	–
8	4	4	8	8	8	4	H-WKWKWKRRRFKWKWKW-NH2	10.4	> 256	–	–	–	–	–
8	4	8	8	8	8	2	H-WRWRRRRFRWRW-NH2	8.7	> 256	–	–	–	–	–

The next lines start with the molecule.

Molecule	MIC (Staphylococcus aureus [1]) [µM]	MIC [2] [µM]	MIC (Pseudomonas aeruginosa) [µM]	MIC (Enterococcus faecalis) [µM]	MIC (Escherichia coli [3]) [µM]	MIC (Klebsiella pneumoniae) [µM]	MIC (Bacillus subtilis) [µM]	CC50 at 1 h [4] [µM]	HC10 (Erythrocyte) [µM]	Activity (Escherichia coli [5])	MIC (Staphylococcus aureus [6]) [µM]	fold change (FC) (Staphylococcus aureus [7])	MIC (Escherichia coli [8]) [µM]	Activity (Staphylococcus aureus [9])
CC(C)C[C@H](NC(=O)[C@H](CCCNC(=N)N)NC(=O)CNC(=O)CNC(=O)[C@@H](N)CCCNC(=N)N)C(=O)N[C@@H](CS)C(=O)N[C@@H](Cc1ccc(O)cc1)C(=O)N[C@@H](CS)C(=O)N[C@@H](CCCNC(=N)N)C(=O)N[C@@H](CCCNC(=N)N)C(=O)N[C@@H](CCCNC(=N)N)C(=O)N[C@@H](Cc1ccccc1)C(=O)N[C@@H](CS)C(=O)N[C@H](C(=O)N[C@@H](CS)C(=O)N[C@H](C(=O)NCC(=O)N[C@@H](CCCNC(=N)N)C(N)=O)C(C)C)C(C)C (H-RGGRLCYCRRRFCVCVGR-NH2)	8 (≈ 17.3 µg/mL)	4 (≈ 8.64 µg/mL)	4 (≈ 8.64 µg/mL)	8 (≈ 17.3 µg/mL)	8 (≈ 17.3 µg/mL)	8 (≈ 17.3 µg/mL)	2 (≈ 4.32 µg/mL)	14.2	20	–	–	–	–	–
NC[C@H]1O[C@H](O[C@H]2[C@H](O)[C@@H](O[C@H]3O[C@H](CO)[C@@H](O)[C@H](N)[C@H]3O)[C@H](N)C[C@@H]2N)[C@H](O)[C@@H](O)[C@@H]1O [KANAMYCIN]	< 1	> 128	> 128	16 (≈ 7.75 µg/mL)	4 (≈ 1.94 µg/mL)	64 (≈ 31 µg/mL)	< 1	–	–	Active	1020 (≈ 496 µg/mL)	64	1020 (≈ 496 µg/mL)	–
CC[C@H](C)[C@H](NC(=O)CN)C(=O)NCC(=O)N[C@@H](C)C(=O)N[C@H](C(=O)N[C@@H](CC(C)C)C(=O)N[C@@H](CCCCN)C(=O)N[C@H](C(=O)N[C@@H](CC(C)C)C(=O)N[C@H](C(=O)N[C@H](C(=O)NCC(=O)N[C@@H](CC(C)C)C(=O)N1CCC[C@H]1C(=O)N[C@@H](C)C(=O)N[C@@H](CC(C)C)C(=O)N[C@H](C(=O)N[C@@H](CO)C(=O)N[C@@H](Cc1c[nH]c2ccccc12)C(=O)N[C@H](C(=O)N[C@@H](CCCCN)C(=O)N[C@@H](CCCNC(=N)N)C(=O)N[C@@H](CCCCN)C(=O)N[C@@H](CCCNC(=N)N)C(=O)N[C@@H](CCC(N)=O)C(=O)N[C@@H](CCC(N)=O)C(N)=O)[C@@H](C)CC)[C@@H](C)CC)[C@@H](C)O)[C@@H](C)O)C(C)C)C(C)C [MELITTIN]	–	–	–	2 (≈ 5.69 µg/mL)	–	16 (≈ 45.5 µg/mL)	–	–	–	–	–	–	–	–
C[C@@H](O)[C@H]1C(=O)N2C(C(=O)O)=C(S[C@@H]3CN[C@H](C(=O)N(C)C)C3)[C@H](C)[C@H]12 [MEROPENEM]	< 1	< 1	2 (≈ 0.767 µg/mL)	16 (≈ 6.14 µg/mL)	< 1	< 1	< 1	–	–	Active	–	–	–	Active
CO[C@H]1/C=C/O[C@@]2(C)Oc3c(C)c(O)c4c(O)c(c(/C=N/N5CCN(C)CC5)c(O)c4c3C2=O)NC(=O)/C(C)=C\C=C\[C@H](C)[C@H](O)[C@@H](C)[C@@H](O)[C@@H](C)[C@H](OC(C)=O)[C@@H]1C [RIFAMPIN]	< 1	< 1	32 (≈ 26.3 µg/mL)	< 1	4 (≈ 3.29 µg/mL)	32 (≈ 26.3 µg/mL)	< 1	–	–	Active	–	64	–	–
H-FRFRRRRFRFRF-NH2	4	4	8	16	8	8	2	42	237	–	–	–	–	–
H-WKWKRRRFKWKW-NH2	4	4	4	16	4	8	2	120	> 256	–	–	–	–	–
